ChEMBL document CHEMBL3763073 (Eur J Med Chem, 2016)

Experiments:
Vasopressin V1a receptor [1] = molecular target: T1, Vasopressin V1a receptor (Homo sapiens, UniProt P37288); experiment: Agonist activity at human vasopressin 1a receptor expressed in HEK293 cells assessed as increase in IP1 accumulation preincubated for 1 hr followed by addition of Ab-Cryptate and IP1-d2 by HTRF assay; format: functional, cell-based
Vasopressin V1a receptor [2] = molecular target: T1, Vasopressin V1a receptor; experiment: Antagonist activity at human vasopressin 1a receptor expressed in HEK293 cells assessed as inhibition of vasopressin induced IP1 accumulation pretreated for 30 mins measured 1 hr post Ab-Cryptate and IP1-d2 addition by HTRF assay; format: functional, cell-based
Oxytocin receptor [3] = molecular target: T2, Oxytocin receptor (Homo sapiens, UniProt P30559); experiment: Antagonist activity at human oxytocin receptor expressed in HEK293 cells assessed as inhibition of oxytocin induced IP1 accumulation pretreated for 30 mins measured 1 hr post Ab-Cryptate and IP1-d2 addition by HTRF assay; format: functional, cell-based
T2 sequence (P30559 whole entry): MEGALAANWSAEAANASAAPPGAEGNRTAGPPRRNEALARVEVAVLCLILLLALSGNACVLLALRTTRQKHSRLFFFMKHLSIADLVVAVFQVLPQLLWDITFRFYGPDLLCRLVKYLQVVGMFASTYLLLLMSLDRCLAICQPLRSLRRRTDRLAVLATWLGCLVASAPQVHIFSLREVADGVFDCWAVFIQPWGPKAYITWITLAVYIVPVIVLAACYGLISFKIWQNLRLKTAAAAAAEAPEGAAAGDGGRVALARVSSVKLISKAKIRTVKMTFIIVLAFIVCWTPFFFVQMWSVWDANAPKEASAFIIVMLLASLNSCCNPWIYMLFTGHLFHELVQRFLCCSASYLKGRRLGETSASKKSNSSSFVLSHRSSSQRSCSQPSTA

Oxytocin receptor [4] = molecular target: T2, Oxytocin receptor; experiment: Displacement of [3H]-oxytocin from human oxytocin receptor expressed in HEK293 cells after 90 mins by microbeta 2 microplate reader analysis; format: cell-based
Oxytocin receptor [5] = molecular target: T2, Oxytocin receptor; experiment: Agonist activity at human oxytocin receptor expressed in HEK293 cells assessed as increase in IP1 accumulation preincubated for 1 hr followed by addition of Ab-Cryptate and IP1-d2 by HTRF assay; format: functional, cell-based
Vasopressin V1a receptor [6] = molecular target: T1, Vasopressin V1a receptor; experiment: Displacement of [3H]-vasopressin from human vasopressin 1a receptor expressed in HEK293 cells after 90 mins by microbeta 2 microplate-reader method; format: cell-based

T1 sequence (P37288 whole entry): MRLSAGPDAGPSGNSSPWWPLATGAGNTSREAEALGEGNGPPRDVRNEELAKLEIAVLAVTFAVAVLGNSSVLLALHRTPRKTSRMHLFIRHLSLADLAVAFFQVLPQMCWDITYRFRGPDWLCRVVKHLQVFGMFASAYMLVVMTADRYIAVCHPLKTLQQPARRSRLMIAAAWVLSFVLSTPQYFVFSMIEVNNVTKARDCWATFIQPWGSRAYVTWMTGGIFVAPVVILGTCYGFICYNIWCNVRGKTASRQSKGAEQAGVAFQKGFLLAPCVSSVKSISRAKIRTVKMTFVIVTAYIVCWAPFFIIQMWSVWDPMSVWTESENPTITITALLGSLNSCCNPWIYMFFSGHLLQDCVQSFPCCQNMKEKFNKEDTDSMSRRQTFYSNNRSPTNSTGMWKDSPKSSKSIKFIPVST

| Structure (SMILES) | EC50 (Vasopressin V1a receptor [1]) [µM] | IC50 (Vasopressin V1a receptor [2]) [µM] | IC50 (Oxytocin receptor [3]) [µM] | Ki (Oxytocin receptor [4]) [µM] | EC50 (Oxytocin receptor [5]) [µM] | Ki (Vasopressin V1a receptor [6]) [µM] |
| --- | --- | --- | --- | --- | --- | --- |
| Cn1ncc2c1Nc1ccccc1N(C(=O)CCCCN1CCN(Cc3cc(O)cc(O)c3)CC1)C2 | > 10 | > 10 | > 10 | > 10 | > 10 | 0.466 |
| Cn1ncc2c1Nc1ccccc1N(C(=O)CCCCCCCN1CCN(Cc3cc(O)cc(O)c3)CC1)C2 | > 10 | 4.67 | > 10 | 8.35 | > 10 | 0.064 |
| Cn1ncc2c1Nc1ccccc1N(C(=O)CCCCCCN1CCN(Cc3cc(O)cc(O)c3)CC1)C2 | > 10 | > 10 | > 10 | > 10 | > 10 | 0.13 |
| COc1cc(CN2CCN(C(=O)NCc3ccc(C(=O)N4Cc5cnn(C)c5Nc5ccccc54)cc3C)CC2)cc(OC)c1 | > 10 | 1.11 | 4.13 | 0.801 | > 10 | 0.062 |
| Cn1ncc2c1Nc1ccccc1N(C(=O)CCCCCN1CCN(Cc3cc(O)cc(O)c3)CC1)C2 | > 10 | > 10 | > 10 | > 10 | > 10 | 0.449 |
| COc1cc(CN2CCN(CCCCCCCC(=O)N3Cc4cnn(C)c4Nc4ccccc43)CC2)cc(OC)c1 | > 10 | 7.67 | > 10 | > 10 | > 10 | 0.248 |

Continued, values first:

| EC50 (Vasopressin V1a receptor [1]) [µM] | IC50 (Vasopressin V1a receptor [2]) [µM] | IC50 (Oxytocin receptor [3]) [µM] | Ki (Oxytocin receptor [4]) [µM] | EC50 (Oxytocin receptor [5]) [µM] | Ki (Vasopressin V1a receptor [6]) [µM] | Structure (SMILES) |
| --- | --- | --- | --- | --- | --- | --- |
| > 10 | > 10 | > 10 | > 10 | > 10 | 0.195 | COc1cc(CN2CCN(CCCCCCC(=O)N3Cc4cnn(C)c4Nc4ccccc43)CC2)cc(OC)c1 |
| > 10 | 8.2 | > 10 | 7.45 | > 10 | 0.266 | COc1cc(CN2CCN(CCCCCC(=O)N3Cc4cnn(C)c4Nc4ccccc43)CC2)cc(OC)c1 |
| > 10 | > 10 | > 10 | > 10 | > 10 | 0.409 | COc1cc(CN2CCN(CCCCC(=O)N3Cc4cnn(C)c4Nc4ccccc43)CC2)cc(OC)c1 |
